Experimental data published in paper PMC7585200, “Methanosarcina acetivorans contains a functional ISC system for iron-sulfur cluster biogenesis” (BMC Microbiology, 2020).

Experiments:
[1] = biological target: Methanosarcina acetivorans IscS2 (MA2718), reconstituted with PLP (Methanosarcina acetivorans); experiment: SEC; IscS2^PLP (3.3 mg loaded) on HiPrep 16/60 Sephacryl S-200, 0.5 ml/min, 50 mM Tris pH 8.0, 150 mM NaCl, 2 mM DTT, 10% glycerol; calibrated with standard proteins; calculated 84 kDa
[2] = biological target: T1, IscS2 (Methanosarcina acetivorans, UniProt Q8TME0); experiment: UV-visible spectrum ([…] nm) and cysteine desulfurase activity with and without PLP; format: biochemical; settings: PLP reconstitution at pH 7.2, 25 °C; assay 50 mM Tris pH 7.5, 1 mM L-cysteine, 1 mM DTT, 50 μM PLP
T1 construct: gene iscS; full-length, N-terminal His6-tag (pET28a) cut with thrombin, E. coli Rosetta (DE3) pLacI; homodimer (84 kDa by SEC)

[3] = biological target: T1, IscS2; experiment: sulfide release, methylene blue assay ([…] nm); format: biochemical; settings: 1 mM L-cysteine, 1 mM DTT, 50 mM Tris pH 7.5, 25 °C, with or without 50 μM PLP

T1 sequence (Q8TME0 entry or part of it): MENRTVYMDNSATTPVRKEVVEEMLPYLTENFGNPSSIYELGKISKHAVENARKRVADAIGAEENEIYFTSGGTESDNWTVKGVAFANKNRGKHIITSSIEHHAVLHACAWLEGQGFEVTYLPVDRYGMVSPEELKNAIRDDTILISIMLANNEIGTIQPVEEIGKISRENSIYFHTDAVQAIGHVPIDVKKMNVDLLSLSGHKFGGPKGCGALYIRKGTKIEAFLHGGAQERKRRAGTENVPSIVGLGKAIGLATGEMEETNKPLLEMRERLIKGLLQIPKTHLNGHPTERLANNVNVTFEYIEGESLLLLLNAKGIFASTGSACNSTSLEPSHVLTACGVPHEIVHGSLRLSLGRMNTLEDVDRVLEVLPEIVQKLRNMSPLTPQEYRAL

“Methanosarcina acetivorans IscS2 (MA2718), reconstituted with PLP (enzyme)” was tested, and the stoichiometry N [1] was 2.

With `Cc1ncc(COP(=O)(O)O)c(C=O)c1O` [PLP] the “UV-visible spectrum (420 nm) and cysteine desulfurase activity with and without” value [2] was “these results reveal that IscS2 is a PLP-dependent cysteine desulfurase”.

`N[C@@H](CS)C(=O)O` [L-cysteine] was tested, and the “sulfide release, methylene blue assay (670 nm)” value [3] was “Purified IscS2 was able to remove sulfur from L-cysteine”.
